Consider 21 compounds from US9199939B2, “Quinoline amide M1 receptor positive allosteric modulators” (Merck Sharp & Dohme Corp., priority 2009, dated 2015).

SMILES strings stand for the structures.

For this assay, the target named is T1, acetylcholine muscarinic M1 receptor (Homo sapiens, UniProt P11229).
T1 construct: expressed in transfected cells; host or cells: CHOnfat (CHO cells; also called CHOK1/hM1)
T1 sequence (P11229 1-460): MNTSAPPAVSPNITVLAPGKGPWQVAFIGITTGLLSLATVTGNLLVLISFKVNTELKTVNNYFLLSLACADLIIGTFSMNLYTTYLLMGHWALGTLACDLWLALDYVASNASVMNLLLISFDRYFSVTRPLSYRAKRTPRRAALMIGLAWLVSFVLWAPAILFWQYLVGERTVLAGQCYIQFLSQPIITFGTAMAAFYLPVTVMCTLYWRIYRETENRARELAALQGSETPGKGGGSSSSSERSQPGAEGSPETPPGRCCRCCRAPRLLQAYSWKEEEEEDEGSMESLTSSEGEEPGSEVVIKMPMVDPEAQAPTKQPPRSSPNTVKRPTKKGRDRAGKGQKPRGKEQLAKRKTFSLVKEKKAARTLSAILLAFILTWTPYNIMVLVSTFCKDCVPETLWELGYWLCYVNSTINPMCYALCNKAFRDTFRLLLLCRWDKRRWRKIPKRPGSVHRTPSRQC
Description: Muscarinic M1 FLIPR intracellular calcium assay for positive allosteric modulators. The format is cell-based. The note with it: IP = inflection point calculated from FLIPR values; CHOnfat/hM1 cells; 4 min preincubation, then EC20 acetylcholine (3 nM final); read-out: IP Value. Here is the method:
The assay studies the effect of one or several concentrations of test compounds on basal or acetylcholine-stimulated Ca^2+ levels using FLIPR.
Compounds are prepared and subjected to a preincubation period of 4 min. Thereafter, a single EC20 concentration of acetylcholine is added to each well (3 nM final). The intracellular Ca^2+ level of each sample is measured and compared to an acetylcholine control to determine any modulatory activity.
Cells: CHOnfat/hM1, hM2, hM3 or hM4 cells are plated 24 hr before the assay at a density of 18,000 cells/well (100 μL) in a 384 well plate. CHOnfat/hM1 and CHOnfat/hM3 Growth Medium: 90% DMEM (Hi Glucose); 10% HI FBS; 2 mM L-glutamine; 0.1 mM NEAA; Pen-Strep; and 1 mg/ml Geneticin, are added. For M2Gqi5CHOnfat and M4Gqi5CHOnfat cells, an additional 600 ug/ml hygromycin is added.
Equipment: 384 well plate, 120 μL addition plate; 96-well Whatman 2 ml Uniplate Incubator, 37° C., 5% CO2; Skatron EMBLA-384 Plate Washer; Multimek Pipetting System; Genesis Freedom 200 System; Mosquito System; Temo Nanolitre Pipetting System; and FLIPR^384 Fluorometric Imaging Plate Reader System are used.
Buffers. Assay Buffer: Hanks Balanced Salt Solution, with 20 mM Hepes, 2.5 mM Probenecid (Sigma P-8761) first dissolved in 1 N NaOH, 1% Bovine Serum Albumin (Sigma A-9647). Dye Loading Buffer: Assay Buffer plus 1% Fetal Bovine Serum and Fluo-4AM/Pluronic Acid Mixture. 2 mM Fluo-4AM ester stock in DMSO (Molecular Probes F-14202) Concentration of 2 μM in buffer for a final concentration of 1 μM in Assay. 20% Pluronic Acid Solution stock, with concentration of 0.04% in Buffer, 0.02% in Assay.
65 μL of 2 mM Fluo-4AM are mixed with 130 μL of 20% Pluronic Acid. The resulting solution and 650 μL FBS is added to the assay buffer for a total volume of 65 mL. Positive Controls: 4-Br-A23187: 10 mM in DMSO; final concentration 10 μM. Acetylcholine: 10 mM in water, working stock at both 20 μM and 30 μM in assay buffer, final concentration of 10 μM. This is used to check the maximum stimulation of the CHOK1/hM1 cells. 20 μM (2×) acetylcholine is added in the preincubation part of the assay, and the 30 μM (3×) stock is added in the second part. (EC20)Acetylcholine: 10 mM in water, working stock of 9 nM (3×), and final concentration in assay is 3 nM. This is used after the preincubation with test compounds. Addition of the EC20 Acetylcholine to each well with a test compound will ascertain any modulator activity. 24 wells contain 3 nM Acetylcholine alone as a control.
Determining Activity of Putative Compounds:
Screening Plate Compounds are titrated in 96-well plates (columns 2-11), 100% DMSO, started at a concentration of 15 mM (150× stock concentration), and 3-fold serial dilutions using Genesis Freedom200 System. Four 96-well plates are combined into a 384-well plate using Mosquito Nanolitre Pipetting System by transferring 1 μl of serial diluted compounds to each well, and 1 mM acetylcholine (100× stock concentration) were added as a control. Using Temo, 49 μl assay buffer is added to each well of the 384-well plate right before assay.
In a 96-well Whatman 2 ml Uniplate, 9 nM Acetylcholine (3×) is pipetted into wells corresponding to the screening compounds, and into control wells. The 30 μM acetylcholine control (3×) is added into control wells, and the 3× agonist plate is transferred into a 384 well plate.
Cells are washed three times with 100 μL of buffer, leaving 30 μL of buffer in each well. Using Multimek, 30 μL of Dye Loading Buffer is added into each well and incubated at 37° C., 5% CO2 for up to one hr.
After 60 min, the cells are washed three times with 100 μL of buffer, leaving 30 μL of buffer in each well. The cell plate, screening plate, and agonist addition plates are placed on the platform in the FLIPR and the door closed. A signal test to check background fluorescence and basal fluorescence signal is performed. Laser intensity is adjusted if necessary. […]
`CSc1ncc(Cc2cc(C(=O)N[C@H]3CCOC[C@@H]3O)nc3ccccc23)cn1` [Example 14, N-[(3R,4S)-3-Hydroxytetrahydro-2H-pyran-4-yl]-4-{[2-(methylsulfanyl)pyrimidin-5-yl]methyl}quinoline-2-carboxamide]: the EC50 was 316 nM.

As to `COc1ccc(C(F)c2cc(C(=O)N[C@H]3CCOC[C@@H]3O)nc3c(OC)cccc23)cn1` (stereo partly drawn) [Example 18, 4-[Fluoro(6-methoxypyridin-3-yl)methyl]-N-[(3R,4S)-3-hydroxytetrahydro-2H-pyran-4-yl]-8-methoxyquinoline-2-carboxamide], the EC50 is 247 nM.

Consider `COc1cc(Cc2cc(C(=O)N[C@H]3CCOC[C@@H]3O)nc3c(F)cccc23)cc[n+]1[O-]` [Example 23, 8-Fluoro-N-[(3R,4S)-3-hydroxytetrahydro-2H-pyran-4-yl]-4-[(2-methoxy-1-oxidopyridin-4-yl)methyl]quinoline-2-carboxamide], for which the EC50 is 411 nM.

Turning to `Cn1cc(-c2ccc(Cc3cc(C(=O)N[C@H]4CCCC[C@@H]4O)nc4ccccc34)c[n+]2[O-])cn1` [Example 8, N-[(1S,2S)-2-Hydroxycyclohexyl]-4-{[6-(1-methyl-1H-pyrazol-4-yl)-1-oxidopyridin-3-yl]methyl}quinoline-2-carboxamide], the EC50 is 21 nM.

As for `COc1ccc(C(F)c2cc(C(=O)N[C@H]3CCOC[C@@H]3O)nc3ccccc23)cn1` (stereo partly drawn) [Example 15, 4-[Fluoro(6-methoxypyridin-3-yl)methyl]-N-[(3R,4S)-3-hydroxytetrahydro-2H-pyran-4-yl]quinoline-2-carboxamide hydrate], the EC50 was 52 nM.

`COc1ccc(Cc2cc(C(=O)N[C@H]3CCOC[C@@H]3O)nc3ccccc23)cn1` [Example 11, N-[(3R,4S)-3-Hydroxytetrahydro-2H-pyran-4-yl]-4-[(6-methoxypyridin-3-yl)methyl]quinoline-2-carboxamide]: the EC50 is 52 nM.

For the compound `O=C(N[C@H]1CCCC[C@@H]1O)c1cc(Cc2ccc(Cl)nc2)c2ccccc2n1` [Example 1, 4-[(6-Chloropyridin-3-yl)methyl]-N-[(1S,2S)-2-hydroxycyclohexyl]quinoline-2-carboxamide], the EC50 was 41 nM.

On to `Cn1cc(-c2ccc(Cc3cc(C(=O)N[C@H]4CCCC[C@@H]4F)nc4ccccc34)cn2)cn1` [Example 9, N-[(1S,2S)-2-Fluorocyclohexyl]-4-{[6-(1-methyl-1H-pyrazol-4-yl)pyridin-3-yl]methyl}quinoline-2-carboxamide], for which the EC50 is 261 nM.

Consider `CCOc1ccc(Cc2cc(C(=O)N[C@H]3CCOC[C@@H]3O)nc3ccccc23)cn1` [Example 12, 4-[(6-Ethoxypyridin-3-yl)methyl]-N-[(3R,4S)-3-hydroxytetrahydro-2H-pyran-4-yl]quinoline-2-carboxamide], for which the EC50 is 60 nM.

As for `O=C(N[C@H]1CCOC[C@@H]1O)c1cc(Cc2ccc(O)nc2)c2cccc(F)c2n1` [Example 20, 8-Fluoro-4-[(6-hydroxypyridin-3-yl)methyl]-N-[(3R,4S)-3-hydroxytetrahydro-2H-pyran-4-yl]quinoline-2-carboxamide], the EC50 is 65 nM.

`Cn1cc(-c2ccc(Cc3cc(C(=O)N[C@H]4CCCC[C@@H]4O)nc4ccccc34)cn2)cn1` [Example 5, N-[(1S,2S)-2-Hydroxycyclohexyl]-4-{[6-(1-methyl-1H-pyrazol-4-yl)pyridin-3-yl]methyl}quinoline-2-carboxamide]: the EC50 is 6 nM.

`COc1ccc(Cc2cc(C(=O)N[C@H]3CCOC[C@@H]3O)nc3c(F)ccc(F)c23)cn1` [Example 24, 5,8-Difluoro-N-[(3R,4S)-3-hydroxytetrahydro-2H-pyran-4-yl]-4-[(6-methoxypyridin-3-yl)methyl]quinoline-2-carboxamide]: the EC50 is 33 nM.

Regarding `COc1ccc(Cc2cc(C(=O)N[C@H]3CCOC[C@@H]3O)nc3c(F)cccc23)c[n+]1[O-]` [Example 21, 8-Fluoro-N-[(3R,4S)-3-hydroxytetrahydro-2H-pyran-4-yl]-4-[(6-methoxy-1-oxidopyridin-3-yl)methyl]quinoline-2-carboxamide], the EC50 was 210 nM.

`CSc1ccc(Cc2cc(C(=O)N[C@H]3CCCC[C@@H]3O)nc3ccccc23)cn1` [Example 7, N-[(1S,2S)-2-Hydroxycyclohexyl]-4-{[6-(inethylsulfanyl)pyridin-3-yl]methyl}quinoline-2-carboxamide]: the EC50 was 37 nM.

For the compound `O=C(N[C@H]1CCCC[C@@H]1O)c1cc(Cc2ccc(Cl)nc2)c2ccccc2[n+]1[O-]` [Example 3, 4-[(6-Chloropyridin-3-yl)methyl]-N-[(1S,2S)-2-hydroxycyclohexyl]quinoline-2-carboxamide 1-oxide], the EC50 was 148 nM.

Take `COc1cc(Cc2cc(C(=O)N[C@H]3CCOC[C@@H]3O)nc3ccccc23)ccn1` [Example 13, N-[(3R,4S)-3-Hydroxytetrahydro-2H-pyran-4-yl]-4-[(2-methoxypyridin-4-yl)methyl]quinoline-2-carboxamide]: the EC50 was 46 nM.

With `O=C(N[C@H]1CCOC[C@@H]1O)c1cc(Cc2ccc(Cl)nc2)c2cccc(F)c2n1` [Example 16, 4-[(6-Chloropyridin-3-yl)methyl]-8-fluoro-N-[(3R,4S)-3-hydroxytetrahydro-2H-pyran-4-yl]quinoline-2-carboxamide], the EC50 was 22 nM.

With `Cc1ccc(Cc2cc(C(=O)N[C@H]3CCCC[C@@H]3O)nc3ccccc23)cn1` [Example 2, N-[(1S,2S)-2-Hydroxycyclohexyl]-4-[(6-methylpyridin-3-yl)methyl]quinoline-2-carboxamide], the EC50 was 143 nM.

As to `O=C(N[C@H]1CCCC[C@@H]1O)c1cc(Cc2ccc(C3CC3)nc2)c2ccccc2n1` [Example 4, 4-[(6-Cyclopropylpyridin-3-yl)methyl]-N-[(1,2)-2-hydroxycyclohexyl]quinoline-2-carboxamide], the EC50 is 39 nM.

Turning to `COc1cc(Cc2cc(C(=O)N[C@H]3CCOC[C@@H]3O)nc3c(F)cccc23)ccn1` [Example 22, 8-Fluoro-N-[(3R,4S)-3-hydroxytetrahydro-2H-pyran-4-yl]-4-[(2-methoxypyridin-4-yl)methyl]quinoline-2-carboxamide], the EC50 is 27 nM.

On to `O=C(N[C@H]1CCCC[C@@H]1O)c1cc(Cc2cccnc2)c2ccccc2n1` [Example 6, N-[(1S,2S)-2-Hydroxycyclohexyl]-4-(pyridin-3-ylmethyl)quinoline-2-carboxamide], for which the EC50 was 81 nM.
